This note sets out measurements from patent US20100215618A1, “NOVEL COMPOUNDS - 644” (Arrow Therapeutics Limited, priority 2009, published 2010).

The structures appear in SMILES notation. pIC50: −log10 of the molar value. Where two headings read alike, the source gives them in different places.

The nature of one data set: in vitro. The format is in vitro ADME, Canine. To be noted: dog, MDCK. As to the method:
Cells used: MDCK (Madin-Darby Canine Kidney) cells, ATCC collection # CCL-34, are used to model the intestinal barrier. Cell culture conditions: cells were cultured at 37° C. in a 5% CO2 environment and split twice a week on seeding at 4×10^5 cells/flask (75 cm^2) on day 1 and 2×10^5 cells/flask on day 4. The culture medium consisted of MEM+Earle's-L Glutamine (Gibco #21090-022) supplemented with 10% Australian Fetal Calf Serum (Sigma #F6178), 2 mM L-Glutamine (Gibco #25030-024) and 1× Non Essential Amino Acids (Gibco #11140-035)
On day 1, a 24-well plate (Sarstedt, #83.1836.300) was filled with individual 3 lam pore membrane inserts (Millipore, #PITP 012 50). Each plate allows the testing of a cocktail of 3 control compounds and 11 test compounds in duplicate. The wells (outside the inserts) were filled with 500 μl of culture medium.
A flask of cells was trypsinised and a cell count carried out. Cells were diluted to 1.2×10^5 cells/ml (1×10^5 cells/cm^2) and 500 μl dispensed in each insert on the 24-well plate. The plate was incubated at 37° C. in a 5% CO2 environment for 48 hours.
On day 3, the culture medium was removed from the wells, then the inserts and is replaced with fresh culture medium in the wells, then the inserts (500111 per well and insert) The plate was incubated at 37° C. in a 5% CO2 environment for 24 hours.
On day 4, the controls cocktail and test compounds solutions were made up in HBSS buffer (Hank's Balanced Salt Solution, Gibco #14025-050) at 1011M. The final controls and test compounds concentration in the assay was 10 μM, and DMSO concentration maintained at 0.1% (0.3% for the controls cocktail). The controls cocktail was made up of Atenolol (Sigma # A-7655), Dexamethasone (Sigma #D-1756) and Propranolol (Sigma # P-0884).
A 24-well plate was filled with 500 μl of HBSS buffer per well (assay plate) The culture medium was removed from the wells and inserts. The inserts were washed three times with approximately 500 μl of HBSS buffer. The inserts were transferred to the assay plate. Controls cocktail and test compounds solutions were dispensed inside the inserts (500 μl per insert), in duplicates. The assay plate was incubated at 37° C. in a 5% CO2 environment for 2 hours.
After 2 hours, the inserts were removed from the assay plate and transferred into a new 24-well plate (wash plate) The assay plate containing the receiver solutions was left aside for later sampling. To measure the mass balance, 150 μl were sampled from each insert (donor solutions) and dispensed into 150 μl of HPLC-grade Acetonitrile (Fisher Scientific) containing an internal standard and 0.05% formic acid.
The donor solutions were aspirated and discarded from each insert, and the inserts washed once with approximately 500 μl of HBSS buffer. A 24-well plate was filled with 500 μl of HBSS buffer per well (monolayer integrity plate) A Lucifer Yellow (Sigma #L0144) solution was made up at 1001.1M in HBSS buffer. The empty inserts were transferred into the monolayer integrity plate and filled with 500 μl of the Lucifer Yellow solution to determine the cell monolayers integrity and leftover of the solution was kept in a fridge. The plate was incubated at 37° C. in a 5% CO2 environment for 2 hours.
In the meantime, 150 μl were sampled from the assay plate (receiver solutions) and dispensed into 150 μl of HPLC-grade Acetonitrile containing an internal standard and 0.05% formic acid. A calibration curve was made for each mix of compounds (as appropriate depending on compounds molecular weights) A 10 μM mix of compounds in HBSS buffer was diluted 1:1 in HPLC-grade Acetonitrile containing an internal standard and 0.05% formic acid. A 1:1 mix of HBSS buffer and HPLC-grade Acetonitrile containing an internal standard and 0.05% formic acid was made up and used to make up the calibration curve (2 fold dilutions), with concentrations ranging from 10 μM to 0.078 μM. […]

In data set [1] the test system is HCV replicon cells Huh 9B (genotype 1b). Kind of data set: 1b Replicon Assay (luciferase readout). The class given is cell-based. To be noted: Hepatitis C virus, Huh 9B replicon cells, 72 h, luciferase activity; for pIC50: read-out: HCV IC50 1b Replicon; for IC50: read-out: pIC50 1b Replicon (converted).

In turn, `CC(C)(C)OC(=O)N[C@@H](C(=O)N1CCC[C@H]1c1ncc(-c2ccc(-c3ccc(C(=O)Nc4ccc(CN5CCS(=O)(=O)CC5)cc4)cc3)cc2)[nH]1)c1ccccc1` [Example 2, Tert-butyl N-[(1R)-2-[(2S)-2-[5-[4-[4-[[4-[(1,1-dioxo-1,4-thiazinan-4-yl)methyl]phenyl]carbamoyl]phenyl]phenyl]-1H-imidazol-2-yl]pyrrolidin-1-yl]-2-oxo-1-phenyl-ethyl]carbamate] came in with a Papp at 2 h, 10 µM in “in vitro” of 0.2 ×10⁻⁶ cm/s. In data set [1], the pIC50 is 10.70 and the IC50 is 0.0204 nM.

For the compound `COC(=O)N[C@H](C(=O)N1CCC[C@H]1c1ncc(-c2ccc(-c3ccc(C(=O)Nc4ccc(CN5CCS(=O)(=O)CC5)cc4)cc3)cc2)[nH]1)C(C)C` [Example 3, Methyl N-[(1S)-1-[(2S)-2-[5-[4-[4-[[4-[(1,1-dioxo-1,4-thiazinan-4-yl)methyl]phenyl]carbamoyl]phenyl]phenyl]-1H-imidazol-2-yl]pyrrolidine-1-carbonyl]-2-methyl-propyl]carbamate], in the data set “in vitro”, the Papp at 2 h, 10 µM stood at 4.1 ×10⁻⁶ cm/s. Further, in data set [1], the pIC50 was 9.47 and the IC50 was 0.339 nM.

As to `COC(=O)N[C@H](C(=O)N1CCC[C@H]1c1ncc(-c2ccc(-c3ccc(C(=O)Nc4ccc(CN5CCS(=O)(=O)CC5)cc4)cc3)cc2)[nH]1)C(C)(C)C` [Example 5, Methyl N-[(1S)-1-[(2S)-2-[5-[4-[4-[[4-[(1,1-dioxo-1,4-thiazinan-4-yl)methyl]phenyl]carbamoyl]phenyl]phenyl]-1H-imidazol-2-yl]pyrrolidine-1-carbonyl]-2,2-dimethyl-propyl]carbamate], in the data set “in vitro”, the apparent permeability (Papp) at 2 h, 10 µM worked out at 2 ×10⁻⁶ cm/s. Also, in data set [1], the pIC50 is 9.14 and the IC50 is 0.741 nM.

Regarding `COC(=O)N[C@H](C(=O)N1CCC[C@H]1c1ncc(-c2ccc(-c3ccc(C(=O)Nc4ccc(CN5CCS(=O)(=O)CC5)cc4)cc3)cc2)[nH]1)c1ccccc1` [Example 6, Methyl N-[(1S)-2-[(2S)-2-[5-[4-[4-[[4-[(1,1-dioxo-1,4-thiazinan-4-yl)methyl]phenyl]carbamoyl]phenyl]phenyl]-1H-imidazol-2-yl]pyrrolidin-1-yl]-2-oxo-1-phenyl-ethyl]carbamate], the Papp at 2 h, 10 µM in the data set “in vitro” is 0.1 ×10⁻⁶ cm/s. Moreover, in data set [1], the pIC50 is 10.40 and the IC50 is 0.0417 nM.

In the case of `COC(=O)N[C@@H](C(=O)N1CCC[C@H]1c1ncc(-c2ccc(-c3ccc(C(=O)Nc4ccc(CN5CCS(=O)(=O)CC5)cc4)cc3)cc2)[nH]1)c1ccccc1` [Example 7, Methyl N-[(1R)-2-[(2S)-2-[5-[4-[4-[[4-[(1,1-dioxo-1,4-thiazinan-4-yl)methyl]phenyl]carbamoyl]phenyl]phenyl]-1H-imidazol-2-yl]pyrrolidin-1-yl]-2-oxo-1-phenyl-ethyl]carbamate], the Papp at 2 h, 10 µM in the data set “in vitro” was 0.4 ×10⁻⁶ cm/s. Also, in data set [1], the pIC50 was 10.30 and the IC50 is 0.0468 nM.

`CCN(CC)[C@@H](C(=O)N1CCC[C@H]1c1ncc(-c2ccc(-c3ccc(C(=O)Nc4ccc(CN5CCS(=O)(=O)CC5)cc4)cc3)cc2)[nH]1)c1ccccc1` [Example 8, 4-[4-[2-[(2S)-1-[(2R)-2-(diethylamino)-2-phenyl-acetyl]pyrrolidin-2-yl]-1H-imidazol-5-yl]phenyl]-N-[4-[(1,1-dioxo-1,4-thiazinan-4-yl)methyl]phenyl]benzamide]: the Papp at 2 h, 10 µM in the data set “in vitro” stood at 1.2 ×10⁻⁶ cm/s. In addition, in data set [1], the pIC50 was 10.30 and the IC50 is 0.0468 nM.

Take `CN(C)[C@@H](C(=O)N1CCC[C@H]1c1ncc(-c2ccc(-c3ccc(C(=O)Nc4ccc(CN5CCS(=O)(=O)CC5)cc4)cc3)cc2)[nH]1)c1ccccc1` [Example 9, 4-[4-[2-[(2S)-1-[(2R)-2-(dimethylamino)-2-phenyl-acetyl]pyrrolidin-2-yl]-1H-imidazol-5-yl]phenyl]-N-[4-[(1,1-dioxo-1,4-thiazinan-4-yl)methyl]phenyl]benzamide]: the Papp at 2 h, 10 µM in “in vitro” is 0.9 ×10⁻⁶ cm/s. In data set [1], the pIC50 was 10.00 and the IC50 was 0.1 nM.

In the data set “in vitro”, `COC(=O)N[C@@H](CC(C)C)C(=O)N1CCC[C@H]1c1ncc(-c2ccc(-c3ccc(C(=O)Nc4ccc(CN5CCS(=O)(=O)CC5)cc4)cc3)cc2)[nH]1` [Example 14, Methyl N-[(1S)-1-[(2S)-2-[5-[4-[4-[[4-[(1,1-dioxo-1,4-thiazinan-4-yl)methyl]phenyl]carbamoyl]phenyl]phenyl]-1H-imidazol-2-yl]pyrrolidine-1-carbonyl]-3-methyl-butyl]carbamate] had a Papp at 2 h, 10 µM of 1.2 ×10⁻⁶ cm/s. In data set [1], the pIC50 is 9.44 and the IC50 is 0.355 nM.

The compound `CC[C@H](C)[C@H](NC(=O)OC)C(=O)N1CCC[C@H]1c1ncc(-c2ccc(-c3ccc(C(=O)Nc4ccc(CN5CCS(=O)(=O)CC5)cc4)cc3)cc2)[nH]1` [Example 16, Methyl N-[(1S,2S)-1-[(2S)-2-[5-[4-[4-[[4-[(1,1-dioxo-1,4-thiazinan-4-yl)methyl]phenyl]carbamoyl]phenyl]phenyl]-1H-imidazol-2-yl]pyrrolidine-1-carbonyl]-2-methyl-butyl]carbamate] returned a Papp at 2 h, 10 µM in “in vitro” of 1 ×10⁻⁶ cm/s. In data set [1], the pIC50 was 9.89 and the IC50 is 0.132 nM.

Regarding `COC(=O)N[C@H](C(=O)N1CCC[C@@H]1c1ncc(-c2ccc(-c3ccc(C(=O)Nc4ccc(CN5CCS(=O)(=O)CC5)cc4)cc3)cc2)[nH]1)C(C)C` [Example 20, Methyl N-[(1S)-1-[(2R)-2-[5-[4-[4-[[4-[(1,1-dioxo-1,4-thiazinan-4-yl)methyl]phenyl]carbamoyl]phenyl]phenyl]-1H-imidazol-2-yl]pyrrolidine-1-carbonyl]-2-methyl-propyl]carbamate], the Papp at 2 h, 10 µM in the data set “in vitro” is 0.4 ×10⁻⁶ cm/s. Also, in data set [1], the pIC50 was 6.50 and the IC50 is 316 nM.

Consider `CCCS(=O)(=O)N1CCN(Cc2ccc(NC(=O)c3ccc(-c4ccc(-c5cnc([C@@H]6CCCN6C(=O)[C@@H](NC(=O)OC)C(C)C)[nH]5)cc4)cc3)cc2)CC1` [Example 40, Methyl N-[(1S)-2-methyl-1-[(2S)-2-[5-[4-[4-[[4-[(4-propylsulfonylpiperazin-1-yl)methyl]phenyl]carbamoyl]phenyl]phenyl]-1H-imidazol-2-yl]pyrrolidine-1-carbonyl]propyl]carbamate], for which the Papp at 2 h, 10 µM in “in vitro” is 0.7 ×10⁻⁶ cm/s. Also, in data set [1], the pIC50 is 10.00 and the IC50 was 0.1 nM.

Take `COC(=O)N[C@H](C(=O)N1CCOC[C@H]1c1ncc(-c2ccc(-c3ccc(C(=O)Nc4ccc(CN5CCS(=O)(=O)CC5)cc4)cc3)cc2)[nH]1)c1ccccc1` [Example 47, Methyl N-[(1S)-2-[(3R)-3-[5-[4-[4-[[4-[(1,1-dioxo-1,4-thiazinan-4-yl)methyl]phenyl]carbamoyl]phenyl]phenyl]-1H-imidazol-2-yl]morpholin-4-yl]-2-oxo-1-phenyl-ethyl]carbamate]: the Papp at 2 h, 10 µM in the data set “in vitro” was 0.1 ×10⁻⁶ cm/s. Moreover, in data set [1], the pIC50 is 9.55 and the IC50 is 0.275 nM.

For the compound `COC(=O)N[C@H](C(=O)N1CCC[C@H]1c1ncc(-c2ccc(-c3ccc(C(=O)Nc4ccc(CN5CCS(=O)(=O)CC5)cc4)cc3)c(C)c2)[nH]1)C(C)C` [Example 54, Methyl N-[(1S)-1-[(2S)-2-[5-[4-[4-[[4-[(1,1-dioxo-1,4-thiazinan-4-yl)methyl]phenyl]carbamoyl]phenyl]-3-methyl-phenyl]-1H-imidazol-2-yl]pyrrolidine-1-carbonyl]-2-methyl-propyl]carbamate], the apparent permeability coefficient (Papp) at 2 h, 10 µM in “in vitro” was determined as 6 ×10⁻⁶ cm/s. In data set [1], the pIC50 is 9.68 and the IC50 was 0.209 nM.

The term Papp denotes a coefficient for how fast a substance crosses the barrier. Broadly, the pIC50 is the IC50 on a negative log10 scale, so that one unit is a factor of ten.
